Here are results for 36 compounds from patent US8088806B2 (Achillion Pharmaceuticals, Inc., priority 2005, dated 2012).

The subject of the assay is HCV replicon. Put plainly: Replicon based assay of HCV replication inhibition (NPT ELISA). It counts as cell-based, Hepatitis C virus. As to conditions: Hepatitis C virus, Huh-7, 72 h, Table I; Huh-7 HCV replicon-containing cells, three days; read-out: Activity. Here is the method:
Compounds claimed herein are tested for the ability to inhibit viral replication of the Hepatitis C replicon in cultured cells in which the HCV replicon construct has been incorporated. The HCV replicon system was described by Bartenschlager, et. al (Science, 285, pp. 110-113 (1999)). The replicon system is predictive of in vivo anti-HCV activity; compounds that are active in humans uniformly evidence activity in the replicon assay.
In this assay HCV replicon containing cells are treated with different concentrations of the test compound to ascertain the ability of the test compound to suppress replication of the HCV replicon. As a positive control, HCV replicon-containing cells are treated with different concentrations of interferon alpha, a known inhibitor of HCV replication. The replicon assay system includes Neomycin Phosphotransferase (NPT) as a component of the replicon itself in order to detect the transcription of replicon gene products in the host cell. Cells in which the HCV replicon is actively replicating have high levels of NPT; the level of NPT is proportional to HCV replication. […] The NPT level of each sample is measured using a captured ELISA.
A protocol for testing compounds for the ability to inhibit viral replication of the Hepatitis C replicon cultured cells in which the replicon construct has been incorporated, follows.
The HCV replicon contains, 5′-3′, the HCV-IRES, the neomycin phosphotransferase (neo) gene, the IRES of encephalomyocarditis virus, which directs translation of HCV sequences NS3 to NS5B, and the 3′-NTR. The sequence of the HCV replicon has been deposited in GenBank (Accession no. AJ242652).
The replicon is transfected into Huh-7 cells using standard methods such as electroporation.
The equipment and materials include, but are not limited to, Huh-7 HCV replicon-containing cells, maintenance media (DMEM (Dulbecco's modified Eagle media) supplemented with 10% FBS, L-glutamine, non-essential amino acids, penicillin (100 units/ml), streptomycin (100 micrograms/ml), and 500 micrograms/ml of Geneticin (G418), screening media (DMEM supplemented with 10% FBS, L-glutamine, non-essential amino acids, penicillin (100 units/ml) and streptomycin (100 micrograms/ml)), 96 well tissue culture plates (flat bottom), 96 well plates (U bottom for drug dilution), Interferon alpha for positive control, fixation reagent (such as methanol: acetone), primary antibody (rabbit anti-NPTII), secondary antibody: Eu-N1l, and enhancement solution.
The cells are then seeded onto 96-well plates at a density of 6000-7500 cells/100 microliters/well (6-7.5×10^5 cells/10 ml/plate). The plates are then incubated at 37° C. in a 5% CO2 incubator.
HCV replicon-containing cells are rinsed with once PBS once; 2 mls of trypsin are then added. Cells are incubated at 37° C. in a 5% CO2 incubator for 3-5 minutes. 10 mls of complete medium is added to stop the reaction. Cells are blown gently, put into a 15 ml tube, and spun at 1200 rpm for four minutes. The trypsin/medium solution is removed and 5 mls of medium (500 ml DMEM (high glucose)) from BRL catalog #12430-054; 50 mls 10% FBS, 5% Geneticin G418 (50 mg/ml, BRL catalog #10131-035), 5 ml MEM non-essential amino acids (100×BRL #11140-050) and 5 ml pen-strep (BRL # 15140-148) is added. The cells and media are mixed carefully
Cells are plated with screening medium (500 ml DMEM (BRL #21063-029), 50 ml FBS (BRL #10082-147) and 5 ml MEM non-essential amino acid (BRL #11140-050) at 6000-7500 cells/100 μl/well of 96 well plate (6-7.5×10^5 cells/10 ml/plate). Plates are placed into 37° C. 5% CO2 incubator overnight.
The following morning, drugs (test compounds or interferon alpha) are diluted in 96 well U bottom plates with media or DMSO/media, depending on the final concentration chosen for screening. Generally for 6 concentrations of each test compounds ranging from 10 micromolar to 0.03 micromolar are applied. […]
Consider `Fc1ccc(-c2csc(Nc3ccc(Cl)c(C(F)(F)F)c3)n2)cc1` [compound 59, N-(4-chloro-3-(trifluoromethyl)phenyl)-4-(4-fluorophenyl)thiazol-2-amine], for which the EC50 was under 1000 nM.
The figure for `FC(F)(F)c1cc(Nc2nc(-c3ccc(Cl)c(Cl)c3)cs2)ccc1Cl` [compound 60, N-(4-chloro-3-(trifluoromethyl)phenyl)-4-(3,4-dichlorophenyl)thiazol-2-amine] is under 1000 nM; for `Fc1ccc(-c2csc(Nc3ccc(Cl)c(C(F)(F)F)c3)n2)c(F)c1` [compound 61, N-(4-chloro-3-(trifluoromethyl)phenyl)-4-(2,4-difluorophenyl)thiazol-2-amine] it is under 1000 nM.
The result for `FC(F)(F)c1cc(Nc2nc(-c3ccc(Cl)cc3)cs2)ccc1Cl` [compound 62, N-(4-chloro-3-(trifluoromethyl)phenyl)-4-(4-chlorophenyl)thiazol-2-amine] reads over 10000 nM; that for `CCCCCOc1ccc(Nc2nc(-c3ccc(F)cc3)cs2)cn1` [compound 63, N-(4-(4-fluorophenyl)thiazol-2-yl)-6-(pentyloxy)pyridin-3-amine], under 1000 nM.
The result for `CCCCCOc1ccc(Nc2nc(-c3ccc(Cl)c(Cl)c3)cs2)cn1` [compound 64, N-(4-(3,4-dichlorophenyl)thiazol-2-yl)-6-(pentyloxy)pyridin-3-amine] reads over 10000 nM; that for `CCCCCOc1ccc(Nc2nc(-c3ccc(F)cc3F)cs2)cn1` [compound 65, N-(4-(2,4-difluorophenyl)thiazol-2-yl)-6-(pentyloxy)pyridin-3-amine], over 10000 nM; that for `CCCCCOc1ccc(Nc2nc(-c3ccc(Cl)cc3)cs2)cn1` [compound 66, N-(4-(4-chlorophenyl)thiazol-2-yl)-6-(pentyloxy)pyridin-3-amine], under 1000 nM.
As for `CCCCCOc1ccc(Nc2nc(-c3cccnc3)cs2)cn1` [compound 67, 6-(pentyloxy)-N-(4-(pyridin-3-yl)thiazol-2-yl)pyridin-3-amine], the EC50 was under 1000 nM.
The figure for `CCCCCOc1ccc(Nc2nc(-c3cccnc3)cs2)cc1F` [compound 68, N-(3-fluoro-4-(pentyloxy)phenyl)-4-(pyridin-3-yl)thiazol-2-amine] is under 1000 nM.
The result for `c1cncc(-c2csc(Nc3ccc(CN4CCCCC4)cc3)n2)c1` [compound 69, N-(4-((piperidin-1-yl)methyl)phenyl)-4-(pyridin-3-yl)thiazol-2-amine] reads over 10000 nM.
In the case of `c1cc(Nc2nc(-c3cccnc3)cs2)cc(OC2Cc3ccccc3C2)c1` [compound 70, N-(3-(2,3-dihydro-1H-inden-2-yloxy)phenyl)-4-(pyridin-3-yl)thiazol-2-amine], the EC50 was under 1000 nM.
The figure for `Fc1cc(Nc2nc(-c3cccnc3)cs2)ccc1OCC1CCCCC1` [compound 71, N-(4-(cyclohexylmethoxy)-3-fluorophenyl)-4-(pyridin-3-yl)thiazol-2-amine] is under 1000 nM.
The result for `Fc1cc(Nc2nc(-c3cccnc3)cs2)ccc1N1CCC(c2ccccc2)CC1` [compound 72, N-(3-fluoro-4-(4-phenylpiperidin-1-yl)phenyl)-4-(pyridin-3-yl)thiazol-2-amine] reads under 1000 nM; that for `FC(F)(F)Oc1cccc(CNc2nc(-c3cccnc3)cs2)c1` [compound 76, N-(3-(trifluoromethoxy)benzyl)-4-(pyridin-3-yl)thiazol-2-amine], over 10000 nM; that for `FC(F)(F)Oc1ccc(CNc2nc(-c3cccnc3)cs2)cc1` [compound 77, N-(4-(trifluoromethoxy)benzyl)-4-(pyridin-3-yl)thiazol-2-amine], over 10000 nM.
The result for `c1ccc(-c2ccc(CNc3nc(-c4cccnc4)cs3)cc2)cc1` [compound 78, N-(4-phenyl-benzyl)-4-(pyridin-3-yl)thiazol-2-amine] reads over 10000 nM; that for `c1ccc(-c2cccc(CNc3nc(-c4cccnc4)cs3)c2)cc1` [compound 79, N-(3-phenyl-benzyl)-4-(pyridin-3-yl)thiazol-2-amine], over 10000 nM.
Consider `c1ccc(Oc2ccc(CNc3nc(-c4cccnc4)cs3)cc2)cc1` [compound 80, N-(4-phenoxybenzyl)-4-(pyridin-3-yl)thiazol-2-amine], for which the EC50 is over 10000 nM.
In the case of `CCCCOc1ccc(CNc2nc(-c3cccnc3)cs2)cc1` [compound 81, N-(4-butoxybenzyl)-4-(pyridin-3-yl)thiazol-2-amine], the EC50 is over 10000 nM.
The result for `CCCCc1ccc(CNc2nc(-c3cccnc3)cs2)cc1` [compound 82, N-(4-butylbenzyl)-4-(pyridin-3-yl)thiazol-2-amine] reads over 10000 nM; that for `c1ccc(Oc2cccc(CCNc3nc(-c4cccnc4)cs3)c2)cc1` [compound 83, N-(3-phenoxyphenethyl)-4-(pyridin-3-yl)thiazol-2-amine], over 10000 nM.
The figure for `c1ccc(Oc2ccc(CCNc3nc(-c4cccnc4)cs3)cc2)cc1` [compound 84, N-(4-phenoxyphenethyl)-4-(pyridin-3-yl)thiazol-2-amine] is over 10000 nM; for `CCCCCOc1ccc(Nc2nc(-c3cccnc3)cs2)cc1` [compound 85, N-(4-(pentyloxy)phenyl)-4-(pyridin-3-yl)thiazol-2-amine] it is under 1000 nM.
As for `CCCCCc1ccc(Nc2nc(-c3cccnc3)cs2)cc1` [compound 86, N-(4-pentylphenyl)-4-(pyridin-3-yl)thiazol-2-amine], the EC50 is under 1000 nM.
The figure for `c1ccc(COc2cccc(Nc3nc(-c4cccnc4)cs3)c2)cc1` [compound 87, N-(3-(benzyloxy)phenyl)-4-(pyridin-3-yl)thiazol-2-amine] is under 1000 nM.
Turning to `c1ccc(Oc2cccc(Nc3nc(-c4cccnc4)cs3)c2)cc1` [compound 88, N-(3-phenoxyphenyl)-4-(pyridin-3-yl)thiazol-2-amine], the EC50 was under 1000 nM.
The figure for `c1ccc(CCOc2cccc(Nc3nc(-c4cccnc4)cs3)c2)cc1` [compound 89] is under 1000 nM.
Turning to `CCCCCCOc1ccc(Nc2nc(-c3cccnc3)cs2)cc1` [compound 90, N-(4-(hexyloxy)phenyl)-4-(pyridin-3-yl)thiazol-2-amine], the EC50 was under 1000 nM.
The figure for `CCCCOc1ccc(Nc2nc(-c3cccnc3)cs2)cc1` [compound 91, N-(4-butoxyphenyl)-4-(pyridin-3-yl)thiazol-2-amine] is under 1000 nM.
The figure for `CCCCCCCOc1ccc(Nc2nc(-c3cccnc3)cs2)cc1` [compound 92, N-(4-(heptyloxy)phenyl)-4-(pyridin-3-yl)thiazol-2-amine] is under 1000 nM; for `CCCCCCCCOc1ccc(Nc2nc(-c3cccnc3)cs2)cc1` [compound 93, N-(4-(octyloxy)phenyl)-4-(pyridin-3-yl)thiazol-2-amine] it is under 1000 nM; for `CCCCCCCCc1ccc(Nc2nc(-c3cccnc3)cs2)cc1` [compound 95, N-(4-octylphenyl)-4-(pyridin-3-yl)thiazol-2-amine] it is under 1000 nM.
The figure for `CCCCc1ccc(Nc2nc(-c3cccnc3)cs2)cc1` [compound 96, N-(4-butylphenyl)-4-(pyridin-3-yl)thiazol-2-amine] is 1000 to 10000 nM; for `c1ccc(Cc2cccc(Nc3nc(-c4cccnc4)cs3)c2)cc1` [compound 97, N-(3-benzylphenyl)-4-(pyridin-3-yl)thiazol-2-amine] it is under 1000 nM; for `N#CCc1ccc(Nc2nc(-c3cccnc3)cs2)cc1` [compound 98, 2-(4-(4-(pyridin-3-yl)thiazol-2-ylamino)phenyl)acetonitrile] it is over 10000 nM.
